No end group written: not given here.
Columns and labels:
[1] = system: Amb a I.1 stimulated T cell line plus APC; assay: assessment of peptide toxicity in Amb a I.1 primed secondary T cell culture; type: cell-based, human
Procedure: This could reflect a potential toxic effect of the peptides in the T cell assays. To investigate this possibility, an assay was conducted to determine the ability of the peptides to inhibit T cell proliferation. Inhibition was defined as proliferation of a T cell line in response to the peptide which was less than half the proliferation of media control T cell lines plus autologous EBV transformed antigen presenting cells. […]

[2] = system: basophils present in heparinized whole blood; assay: histamine release assay; type: cell-based, human; settings: blood of ragweed-allergic patient #1273, similar in seven other patients; Amb a I.1 from 10 µg/ml in 10-fold dilutions, peptides 50 µg/ml to 0.08 µg/ml
Procedure: The histamine release assay used for these studies is based on the detection of an acylated derivative of histamine using a specific monoclonal antibody (Morel, A.M. and Delaage, M.A. (1988) J. Allergy Clin. Immunol. 82:646-654). The assay was performed in two steps: 1) the release of histamine from basophils present in heparinized whole blood in the presence of different concentrations of protein or peptide; and 2) the assay of histamine present in the supernatants of the release reactions following cell removal by centrifugation. The reagents for this second step are available commercially as a competitive radioimmunoassay from AMAC Inc. (Westbrook, ME).
Heparinized whole blood was drawn from ragweed allergic patients. […] The tubes were then centrifuged in a microfuge at 1500 RPM for 3 minutes and the supernatants were carefully removed and analyzed or stored at -20°C for later analysis. […]
For the competition radioimmunoassay, a 50 µl aliquot of each release supernatant was mixed with 150 µl of histamine release buffer (supplied with the kit from AMAC). […] The solutions were aspirated from the tubes and the radioactivity bound to the tube was measured on a gamma counter (Cobra 5005, Beckman, Inc.) for two minutes per tube. […]
Six or more 10-fold dilutions of Amb a I.1 starting at 10 µg/ml (approximately 0.66 µM) were analyzed. […]

peptide solubility = type: physicochemical; settings: compared among Amb 2-18.1, Amb2-19.1, Amb2-20.1 and Amb2-21.1
Source text: Peptides Amb 2-18.1 (SEQ ID NO:126), Amb2-19.1 (SEQ ID NO:127), Amb2-20.1 (SEQ ID NO:128) and Amb2-21.1 (SEQ ID NO:129) correspond to different lengths of the original peptide which were synthesized (including the serine substitution at position 212) and analyzed to determine solubility. […] Thus, substitutions and/or amino acid additions to this peptide were made in order to further increase the solubility while maintaining T cell reactivity. For example, in peptides Amb2-22.1 (SEQ ID NO:130) and Amb2-23.1 (SEQ ID NO:131) isoleucine at position 201 was substituted with glutamic acid (Amb2-22.1) or lysine (Amb2-23.1) to lower the pI of the resulting peptide and avoid precipitation of the peptide at physiological pH. Similarly, the following peptides were also synthesized with various substitutions or additions designed to decrease the pI and increase the hydrophilicity of the peptide, each is shown in Figure 25: Amb2-26.1 (SEQ ID NO:132); Amb2-28.1 (SEQ ID NO:133); Amb2-30.1 (SEQ ID NO:134); Amb2-32.1 (SEQ ID NO:135); Amb2-33.1 (SEQ ID NO:136); Amb2-34.1 (SEQ ID NO:137); Amb2-35.1 (SEQ ID NO:138); Amb2-36.1 (SEQ ID NO:139); Amb2-37.1 (SEQ ID NO:140); and Amb2-38.1 (SEQ ID NO:141).

histamine release [2] | solubility (peptide solubility) | Sequence | # patients ([1]; patients with toxicity (proliferation less than half of media control) / patients tested) | (%)patients ([1]; percent of patients with toxicity (proliferation less than half of media control)) | both ([1]; toxicity at 5 µg/ml and 50 µg/ml peptide, fraction of patients with toxicity) | low dose only ([1]; toxicity only at 5 µg/ml peptide, fraction of patients with toxicity) | high dose only ([1]; toxicity only at 50 µg/ml peptide, fraction of patients with toxicity)
no discernible histamine release |  | KGTVGGKDGDIYTVTSELDDDVAN [AMB 1-2.1] | 3/46 | 7% | 0 | 2/3 | 1/3
 | most soluble | SISGSSQIWIDHSSLSKS [AMB2-19.1] |  |  |  |  | 
